Reference: article PMC5487681, “Identification of Antifungal H^+-ATPase Inhibitors with Effect on Plasma Membrane Potential” (Antimicrobial Agents and Chemotherapy, 2017)
Values after ≈ are worked out from the molar mass of the structure shown. Where two headings read alike, the source gives them in different places. Residues, ends and D or L forms follow the SMILES beside them.

How the values were obtained:
[1] = test system: Candida parapsilosis ATCC 22019; experiment: microbe, parasite or virus in culture; conditions: for MIC: Lodderomyces parapsilosis, ATCC22019, pH 7, read-out: MIC C. parapsilosis
Method: (§1) The following fungal isolates were used: Saccharomyces cerevisiae ATCC 9763, Candida albicans SC5314, Candida parapsilosis ATCC 22019, Candida tropicalis Ct016, Candida glabrata ATCC 90030, Aspergillus fumigatus ATCC 13073, and Aspergillus flavus ATCC MYA-1005. Frozen stocks of yeast isolates in glycerol (final concentration, 20%) were prepared by growing the cells to log phase in YPD medium at 30°C and 150 rpm. Frozen stocks of mold spores were prepared by harvesting spores from 7-day-old potato glucose agar plates in phosphate-buffered saline, 0.1% Tween 80 and aliquoting these spores in the presence of glycerol (final concentration, 20%). The cells were stored at −80°C. The cells or spores were thawed and diluted to a final concentration of 0.5 × 10^5 to 2.5 × 10^5 CFU/ml in sterile Milli-Q H2O. […] The plate was incubated for 20 to 24 h at 34°C (72 h for molds), and the OD490 was measured on a Victor X5 (PerkinElmer) plate reader. Mold growth assay plates were also visually inspected. The MIC was defined as the lowest concentration inhibiting the visual growth of the microorganism.

[2] = test system: Candida glabrata ATCC 90030; experiment: microbe, parasite or virus in culture; conditions: for MIC: Nakaseomyces glabratus, ATCC90030, pH 7, read-out: MIC C. glabrata
Method: as §1

Candida tropicalis Ct016 = experiment: microbe, parasite or virus in culture; conditions: for MIC: Candida tropicalis, CT016, pH 7, read-out: MIC C. tropicalis
Method: as §1

S. cerevisiae Pma1 = S. cerevisiae Pma1 (Saccharomyces cerevisiae, UniProt P05030); experiment: ATP hydrolysis assay, S. cerevisiae plasma membranes containing Pma1; type: biochemical; design: containing the full-length cDNA of the S. cerevisiae plasma membrane H^+-ATPase isoform PMA1; made in house; host or cells: S. cerevisiae RS72 (PMA1 cDNA under PMA1 promoter); also wild-type S. cerevisiae ATCC 9763
Chain of S. cerevisiae Pma1 (P05030 whole entry, canonical isoform): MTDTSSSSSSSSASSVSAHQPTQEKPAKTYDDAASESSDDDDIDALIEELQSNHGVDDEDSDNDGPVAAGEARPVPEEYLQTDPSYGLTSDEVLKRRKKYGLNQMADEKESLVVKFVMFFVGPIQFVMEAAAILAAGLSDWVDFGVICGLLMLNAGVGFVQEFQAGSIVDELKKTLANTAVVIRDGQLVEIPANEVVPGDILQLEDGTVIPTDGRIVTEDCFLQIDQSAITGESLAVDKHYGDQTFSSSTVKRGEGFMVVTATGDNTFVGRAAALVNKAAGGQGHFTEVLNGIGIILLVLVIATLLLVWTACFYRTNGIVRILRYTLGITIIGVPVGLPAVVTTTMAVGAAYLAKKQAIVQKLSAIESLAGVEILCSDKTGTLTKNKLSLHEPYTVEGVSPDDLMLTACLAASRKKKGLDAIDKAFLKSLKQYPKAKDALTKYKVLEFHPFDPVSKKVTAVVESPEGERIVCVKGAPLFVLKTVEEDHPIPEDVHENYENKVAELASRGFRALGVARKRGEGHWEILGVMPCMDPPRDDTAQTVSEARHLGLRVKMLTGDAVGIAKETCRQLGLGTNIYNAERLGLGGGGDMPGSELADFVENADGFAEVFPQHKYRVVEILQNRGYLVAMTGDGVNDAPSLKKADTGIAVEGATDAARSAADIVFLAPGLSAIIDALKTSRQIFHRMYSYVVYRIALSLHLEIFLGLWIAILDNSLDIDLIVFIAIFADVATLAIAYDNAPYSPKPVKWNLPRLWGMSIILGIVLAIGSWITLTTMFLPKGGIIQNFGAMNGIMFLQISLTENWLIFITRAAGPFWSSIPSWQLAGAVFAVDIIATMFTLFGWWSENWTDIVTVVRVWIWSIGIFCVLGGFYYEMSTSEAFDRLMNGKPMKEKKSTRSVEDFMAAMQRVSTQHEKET
Method: Plasma membranes containing Pma1 were isolated from S. cerevisiae RS72 cells containing the full-length cDNA of the S. cerevisiae plasma membrane H^+-ATPase isoform PMA1 under the control of the PMA1 promoter, as described in reference.
A 100-ml overnight culture in YPD medium [10 g/liter yeast extract (BD, Sparks, MD), 20 g/liter Bacto peptone (BD), 20 g/liter D-(+)-glucose] was transferred to 1 liter YPD medium and grown at room temperature and 150 rpm for 18 h for wild-type S. cerevisiae (ATCC 9763) and 7 h for C. albicans. The cells were harvested and washed in Milli-Q H2O by centrifugation at 3,360 × g. The cells were glucose activated by the addition of 10% D-(+)-glucose for 10 min while shaking. The cells were then centrifuged at 3,360 × g for 3 min and frozen. Cells (60 to 80 g, wet weight) were then disrupted by bead beating (BioSpec, Bartlesville, OK) and processed as described in reference to prepare the plasma membranes. […] All batches were validated by ATPase hydrolysis activity, pH optimum, and orthovanadate sensitivity.
The protein activity levels were determined by measuring the amount of free phosphate produced from the ATP hydrolysis reaction. The assay was performed as described in reference. Each well contained ATPase enzyme, 2 μl of inhibitor (usually in the range of 333 to 0.01 μM) dissolved in dimethyl sulfoxide (DMSO) (Duchefa Biochemie, Haarlem, The Netherlands), and an assay buffer dependent on the enzyme for a final volume of 60 μl. Possible compound precipitation in the assay buffer was monitored using a Nephelostar plate reader measuring turbidity, and the information was taken into account in the IC50 determination. Pma1 assay buffer consisted of 20 mM 3-(N-morpholino)propanesulfonic acid (MOPS)–NaOH, pH 6.5 or 7.0, 8 mM MgSO4, 50 mM KNO3 (a vacuolar ATPase inhibitor), 25 mM sodium azide (a mitochondrial ATPase inhibitor), and 250 μM sodium molybdate (an acid phosphatase inhibitor). SERCA buffer consisted of 9 mM MOPS-NaOH, pH 7, 2.7 mM MgCl2, 90 μM CaCl2, and 72 mM KCl. Na^+,K^+-ATPase buffer consisted of 30 mM MOPS-NaOH, pH 7, 40 mM NaCl, 4 mM MgCl2, and 20 mM KCl. The concentration of protein was adjusted to obtain a signal of the optical density at 860 nm (OD860) of between 0.5 and 1.0 in the untreated samples (for all Pma1 batches, ∼1 to 2 μg/well; for SERCA and Na^+,K^+-ATPase, ∼0.1 to 0.2 μg/well). […]

Na^+,K^+-ATPase = biological target: T1, Na^+,K^+-ATPase (Sus scrofa, UniProt P05024); experiment: ATP hydrolysis assay, Na+,K+-ATPase; type: biochemical, porcine
T1 construct: from tissue; host or cells: porcine kidney (gift of Natalya Fedosova, Aarhus University)
Method: Rabbit sarcoplasmic reticulum membranes containing sarcoplasmic endoplasmic reticulum Ca^2+-ATPase (SERCA) were kindly provided by Claus E. Olesen and Jesper V. Møller, Aarhus University, and prepared as described in reference. Porcine kidney Na^+,K^+-ATPase was kindly provided by Natalya Fedosova, Aarhus University, and prepared as described in reference.
The protein activity levels were determined by measuring the amount of free phosphate produced from the ATP hydrolysis reaction. The assay was performed as described in reference. Each well contained ATPase enzyme, 2 μl of inhibitor (usually in the range of 333 to 0.01 μM) dissolved in dimethyl sulfoxide (DMSO) (Duchefa Biochemie, Haarlem, The Netherlands), and an assay buffer dependent on the enzyme for a final volume of 60 μl. Possible compound precipitation in the assay buffer was monitored using a Nephelostar plate reader measuring turbidity, and the information was taken into account in the IC50 determination. Pma1 assay buffer consisted of 20 mM 3-(N-morpholino)propanesulfonic acid (MOPS)–NaOH, pH 6.5 or 7.0, 8 mM MgSO4, 50 mM KNO3 (a vacuolar ATPase inhibitor), 25 mM sodium azide (a mitochondrial ATPase inhibitor), and 250 μM sodium molybdate (an acid phosphatase inhibitor). SERCA buffer consisted of 9 mM MOPS-NaOH, pH 7, 2.7 mM MgCl2, 90 μM CaCl2, and 72 mM KCl. Na^+,K^+-ATPase buffer consisted of 30 mM MOPS-NaOH, pH 7, 40 mM NaCl, 4 mM MgCl2, and 20 mM KCl. The concentration of protein was adjusted to obtain a signal of the optical density at 860 nm (OD860) of between 0.5 and 1.0 in the untreated samples (for all Pma1 batches, ∼1 to 2 μg/well; for SERCA and Na^+,K^+-ATPase, ∼0.1 to 0.2 μg/well).

[3] = Table 1, ATP hydrolysis at pH 6.5 (compounds marked b), 2 to 3 experiments, read-out: IC50 Pma1
[4] = Table 1, ATP hydrolysis at pH 7.4 (compounds marked b), read-out: IC50 Na^+,K^+-ATPase
[5] = Table 1, ATP hydrolysis at pH 7, 2 to 3 experiments, read-out: IC50 Pma1
[6] = Table 1, ATP hydrolysis at pH 7, read-out: IC50 Na^+,K^+-ATPase
[7] = ATP hydrolysis, S. cerevisiae Pma1, read-out: IC50 for Pma1

Row | Structure (SMILES) | MIC for growth inhibition, C. parapsilosis ([1]; ATCC 22019) | MIC for growth inhibition, C. glabrata ([2]; ATCC 90030) | MIC for growth inhibition, C. tropicalis (Candida tropicalis Ct016; Ct016) | IC50 (S. cerevisiae Pma1; Table 2, pH 7, n = 2, read-out: IC50 for ATP hydrolysis, S. cerevisiae Pma1) | Selectivity for Pma1 over Na^+,K^+-ATPase (S. cerevisiae Pma1; from IC50 of Table 2) | IC50 (Na^+,K^+-ATPase) | MIC [1] | MIC [2] | MIC (Candida tropicalis Ct016) | IC50 (S. cerevisiae Pma1; [3]) | IC50 (Na^+,K^+-ATPase; [4]) | IC50 (S. cerevisiae Pma1; [5]) | IC50 (Na^+,K^+-ATPase; [6]) | IC50 (S. cerevisiae Pma1; [7])
1 | N=C(N)NCCC[C@@H](N)C(=O)N[C@H](CCCNC(=N)N)C(=O)N[C@H](CCCNC(=N)N)C(=O)N[C@H](Cc1ccccc1)C(=O)N[C@H](Cc1c[nH]c2ccccc12)C(=O)N[C@H](Cc1c[nH]c2ccccc12)C(=O)N[C@H](Cc1ccccc1)C(=O)N[C@H](CCCNC(=N)N)C(=O)N[C@H](CCCNC(=N)N)C(=O)N[C@H](CCCNC(=N)N)C(N)=O [BM2, reference compound] (HELM PEPTIDE1{[dR].[dR].[dR].[dF].[dW].[dW].[dF].[dR].[dR].[dR].[am]}$$$$V2.0) | 26 µM | 150 µM | 4.7 µM | 1.2 ± 0.1 µM | 8 fold | 10.4 ± 2.7 µM | – | – | – | – | – | – | – | –
2 | O=C1/C(=C/c2ccc(-c3cc(Cl)ccc3Cl)o2)C=C(c2ccccc2)N1c1ccccc1O [Compound 1] | – | – | – | – | – | – | > 150 µM | > 150 µM | > 150 µM | 0.04 ± 0.035 µM | 13.2 ± 0.91 µM | – | – | –
3 | COc1ccc(-c2cc(C(=O)Nc3ccc(C(C)C)cc3)c3ccccc3n2)c(OC)c1 [Compound 3] | – | – | – | – | – | – | > 150 µM | > 150 µM | > 150 µM | – | – | 2.5 ± 2.5 µM | > 105 µM | –
4 | CC1CCCCN1CC(O)Cn1c(-c2ccccc2)c(-c2ccccc2)c2ccc3ccccc3c21 (stereo not drawn) [Compound 4] | – | – | – | – | – | – | > 38 µM | > 38 µM | 12 µM (≈ 5.7 µg/mL) | 3.7 ± 0.7 µM | 15 ± 7.2 µM | – | – | –
5 | CCOc1ccc2nc3cc(NC(=O)c4cccc(Br)c4)ccc3c(N)c2c1 [Compound 5] | – | – | – | – | – | – | 7.5 µM (≈ 3.27 µg/mL) | 5.8 µM (≈ 2.53 µg/mL) | 7.5 µM (≈ 3.27 µg/mL) | 4.4 ± 0.6 µM | 1.3 ± 0.3 µM | – | – | < 25 µM
6 | Cc1c(-c2ccccc2)[o+]c2ccccc2c1C#Cc1ccccc1 [Compound 6] | – | – | – | – | – | – | > 150 µM | > 150 µM | > 150 µM | 5 ± 3 µM | 3.5 ± 3.7 µM | – | – | –
7 | Oc1cccc(Nc2nc(-c3ccc(Cl)c(Cl)c3)cs2)c1 [Compound 7] | – | – | – | – | – | – | 8.2 µM (≈ 2.77 µg/mL) | 4.7 µM (≈ 1.58 µg/mL) | 26 µM (≈ 8.77 µg/mL) | 5.5 ± 0.3 µM | 5.8 ± 0.8 µM | – | – | < 25 µM
8 | COc1ccc(-c2cc(C(=O)Nc3ccc4c(c3)OCCO4)c3ccccc3n2)c(OC)c1 [Compound 8] | – | – | – | – | – | – | > 38 µM | > 38 µM | > 38 µM | – | – | 6.9 ± 2 µM | > 105 µM | –
9 | COc1cccc(Nc2nc(Cl)nc(Nc3cccc(OC)c3)n2)c1 [Compound 9] | – | – | – | – | – | – | > 150 µM | > 150 µM | > 150 µM | – | – | 9.2 ± 1 µM | > 105 µM | –
